For the assay, the target named is T1, Neuropeptide Y receptor type 2 (Homo sapiens, UniProt P49146).
T1 sequence (P49146 whole entry): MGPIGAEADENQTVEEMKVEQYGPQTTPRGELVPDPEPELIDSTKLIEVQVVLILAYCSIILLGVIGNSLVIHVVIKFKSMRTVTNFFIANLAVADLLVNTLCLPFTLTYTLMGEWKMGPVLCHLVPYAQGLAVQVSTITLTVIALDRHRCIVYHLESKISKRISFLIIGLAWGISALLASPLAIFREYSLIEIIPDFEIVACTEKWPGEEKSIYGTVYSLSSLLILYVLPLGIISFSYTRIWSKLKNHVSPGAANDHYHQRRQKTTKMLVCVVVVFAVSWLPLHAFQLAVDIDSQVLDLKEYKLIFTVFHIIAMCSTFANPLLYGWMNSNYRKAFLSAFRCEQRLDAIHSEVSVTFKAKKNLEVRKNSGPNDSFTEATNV
Briefly: Binding affinity towards the NPY Y2 receptor.
Take `CC(=O)N1CCc2ccc(N(C3CCN(Cc4ccccc4)CC3)S(=O)(=O)/C=C/c3ccccc3)cc21`: the IC50 (usually the concentration that gives 50% inhibition) turned out to be 30 µM.

The molecule `CC(=O)N1CCc2ccc(N(C(=O)/C=C/c3ccccc3)C3CCN(Cc4ccccc4)C3)cc21` (stereo not drawn) showed an IC50 of 17.5 µM. This IC50 lies about 1.7-fold lower than the previous one.

Turning to `CC(=O)N1CCc2ccc(N(C/C=C/c3ccccc3)C3CCN(Cc4ccccc4)CC3)cc21`, the IC50 stood at 30 µM.

The record behind these values is ChEMBL document CHEMBL1147599 (Bioorg Med Chem Lett, 2004).
